# Test results as given in patent US5807535A, “Metal complexes of hydroxyaryl containing aminocarboxylic acid chelating agents” (Australian Nuclear Science & Technology Organisation, priority 1992, dated 1998).
# How the values were obtained:
# [1] = Biodistribution of 99mTc complexes in mice; type: in vivo, Balb/c mice
# Summary of the method: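 Chelator (approx. 1 mg/ml final) labelled with 99mTc via excess stannous chloride at pH approx. 6, labelling efficacy checked by ITLC-SG. Complexes diluted to 15 μCi/100 μl in saline before dosing to mice.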
# [2] = Biodistribution of 67Ga complexes in mice; type: in vivo, balb/c mice
# Summary of the method: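 Ligand labelled with 67Ga citrate at pH 12, 40 °C for 40 min, diluted in saline and filter-sterilised. Balb/c mice given ~3.7×10^5 Bq intravenously via tail vein; five animals sacrificed at each of six time points.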
smiles,measurement,setting,value
O=C(O)CN(CCN(CC(=O)O)CC(=O)Nc1ccccc1O)CC(=O)Nc1ccccc1O [Compound 1],biodistribution GIT,[1]; 1 min,3.82 % Injected dose
same,biodistribution bladder,[1]; 1 min,0.12 % Injected dose
same,biodistribution blood,[1]; 1 min,27.09 % Injected dose
same,biodistribution bone,[1]; 1 min,5.34 % Injected dose
same,biodistribution heart,[1]; 1 min,0.57 % Injected dose
same,biodistribution kidney,[1]; 1 min,11.78 % Injected dose
same,biodistribution liver,[1]; 1 min,12.07 % Injected dose
same,biodistribution lungs,[1]; 1 min,1.54 % Injected dose
same,biodistribution muscle,[1]; 1 min,23.48 % Injected dose
same,biodistribution skin,[1]; 1 min,19.66 % Injected dose
same,biodistribution spleen,[1]; 1 min,0.17 % Injected dose
same,biodistribution stomach,[1]; 1 min,0.5 % Injected dose
same,biodistribution tail,[1]; 1 min,2.42 % Injected dose
same,biodistribution urine,[1]; 1 min,0 % Injected dose
same,biodistribution GIT,[1]; 3 min,6.06 % Injected dose
same,biodistribution bladder,[1]; 3 min,0.63 % Injected dose
same,biodistribution blood,[1]; 3 min,12.02 % Injected dose
same,biodistribution bone,[1]; 3 min,3.1 % Injected dose
same,biodistribution heart,[1]; 3 min,0.23 % Injected dose
same,biodistribution kidney,[1]; 3 min,11.23 % Injected dose
same,biodistribution liver,[1]; 3 min,12.83 % Injected dose
same,biodistribution lungs,[1]; 3 min,0.98 % Injected dose
same,biodistribution muscle,[1]; 3 min,13.18 % Injected dose
same,biodistribution skin,[1]; 3 min,19.28 % Injected dose
same,biodistribution spleen,[1]; 3 min,0.1 % Injected dose
same,biodistribution stomach,[1]; 3 min,0.98 % Injected dose
same,biodistribution tail,[1]; 3 min,1.58 % Injected dose
same,biodistribution urine,[1]; 3 min,5.62 % Injected dose
same,biodistribution GIT,[1]; 5 min,4.77 % Injected dose
same,biodistribution bladder,[1]; 5 min,0.68 % Injected dose
same,biodistribution blood,[1]; 5 min,9.77 % Injected dose
same,biodistribution bone,[1]; 5 min,2.88 % Injected dose
same,biodistribution heart,[1]; 5 min,0.21 % Injected dose
same,biodistribution kidney,[1]; 5 min,9.17 % Injected dose
same,biodistribution liver,[1]; 5 min,11.82 % Injected dose
same,biodistribution lungs,[1]; 5 min,0.77 % Injected dose
same,biodistribution muscle,[1]; 5 min,9.81 % Injected dose
same,biodistribution skin,[1]; 5 min,19.68 % Injected dose
same,biodistribution spleen,[1]; 5 min,0.07 % Injected dose
same,biodistribution stomach,[1]; 5 min,1.02 % Injected dose
same,biodistribution tail,[1]; 5 min,3.76 % Injected dose
same,biodistribution urine,[1]; 5 min,4.51 % Injected dose
same,biodistribution GIT,[1]; 10 min,12.35 % Injected dose
same,biodistribution bladder,[1]; 10 min,1.96 % Injected dose
same,biodistribution blood,[1]; 10 min,5.34 % Injected dose
same,biodistribution bone,[1]; 10 min,5.06 % Injected dose
same,biodistribution heart,[1]; 10 min,0.12 % Injected dose
same,biodistribution kidney,[1]; 10 min,5.58 % Injected dose
same,biodistribution liver,[1]; 10 min,5.96 % Injected dose
same,biodistribution lungs,[1]; 10 min,0.48 % Injected dose
same,biodistribution muscle,[1]; 10 min,16.44 % Injected dose
same,biodistribution skin,[1]; 10 min,15.68 % Injected dose
same,biodistribution spleen,[1]; 10 min,0.06 % Injected dose
same,biodistribution stomach,[1]; 10 min,1.16 % Injected dose
same,biodistribution tail,[1]; 10 min,2.07 % Injected dose
same,biodistribution urine,[1]; 10 min,11.64 % Injected dose
same,biodistribution GIT,[1]; 30 min,20 % Injected dose
same,biodistribution bladder,[1]; 30 min,1.23 % Injected dose
same,biodistribution blood,[1]; 30 min,1.82 % Injected dose
same,biodistribution bone,[1]; 30 min,1.12 % Injected dose
same,biodistribution heart,[1]; 30 min,0.05 % Injected dose
same,biodistribution kidney,[1]; 30 min,3.19 % Injected dose
same,biodistribution liver,[1]; 30 min,3.09 % Injected dose
same,biodistribution lungs,[1]; 30 min,0.2 % Injected dose
same,biodistribution muscle,[1]; 30 min,4.98 % Injected dose
same,biodistribution skin,[1]; 30 min,7.31 % Injected dose
same,biodistribution spleen,[1]; 30 min,0.02 % Injected dose
same,biodistribution stomach,[1]; 30 min,0.49 % Injected dose
same,biodistribution tail,[1]; 30 min,1.53 % Injected dose
same,biodistribution urine,[1]; 30 min,8.84 % Injected dose
same,biodistribution bone,[2]; 1 min,5.07 % ID
same,biodistribution kidney,[2]; 1 min,9.28 % ID
same,biodistribution liver,[2]; 1 min,15.45 % ID
same,biodistribution muscle,[2]; 1 min,22.75 % ID
same,biodistribution skin,[2]; 1 min,11.72 % ID
same,biodistribution spleen,[2]; 1 min,0.29 % ID
same,biodistribution bone,[2]; 3 min,3.30 % ID
same,biodistribution kidney,[2]; 3 min,5.26 % ID
same,biodistribution liver,[2]; 3 min,24.21 % ID
same,biodistribution muscle,[2]; 3 min,12.70 % ID
same,biodistribution skin,[2]; 3 min,13.76 % ID
same,biodistribution spleen,[2]; 3 min,0.14 % ID
same,biodistribution bone,[2]; 5 min,2.83 % ID
same,biodistribution kidney,[2]; 5 min,4.37 % ID
same,biodistribution liver,[2]; 5 min,25.79 % ID
same,biodistribution muscle,[2]; 5 min,12.14 % ID
same,biodistribution skin,[2]; 5 min,13.02 % ID
same,biodistribution spleen,[2]; 5 min,0.1 % ID
same,biodistribution bone,[2]; 10 min,2.20 % ID
same,biodistribution kidney,[2]; 10 min,1.91 % ID
same,biodistribution liver,[2]; 10 min,22.77 % ID
same,biodistribution muscle,[2]; 10 min,26.13 % ID
same,biodistribution skin,[2]; 10 min,8.47 % ID
same,biodistribution spleen,[2]; 10 min,0.06 % ID
same,biodistribution bone,[2]; 30 min,0.50 % ID
same,biodistribution kidney,[2]; 30 min,0.57 % ID
same,biodistribution liver,[2]; 30 min,10.11 % ID
same,biodistribution muscle,[2]; 30 min,1.80 % ID
same,biodistribution skin,[2]; 30 min,1.56 % ID
same,biodistribution spleen,[2]; 30 min,0.01 % ID
same,biodistribution kidney,[2]; 120 min,0.05 % ID
same,biodistribution liver,[2]; 120 min,0.88 % ID
same,biodistribution muscle,[2]; 120 min,0.48 % ID
same,biodistribution skin,[2]; 120 min,0.24 % ID
same,biodistribution spleen,[2]; 120 min,0.01 % ID
